Laboratory results taken from US20100041089A1, “IMPROVED METHOD FOR DETECTING CHEMICAL […]” (priority 2006, published 2010).

System: yeast genes (expressed mRNA)
Assay: DNA chip measurement of expressed mRNA of yeast genes after culture with a toxic chemical substance
Assay type: cell-based, Saccharomyces cerevisiae S288C
Outline: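 Expression is given as treated/untreated fluorescence ratio on a whole-genome yeast DNA chip, a ratio of two or more being significant. Log-phase S288C cultures in YPD at 25 °C received the chemical for 2 h at a dose that slows growth without killing. mRNA was reverse-transcribed with Cy3- or Cy5-dUTP.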

C=CC=O [(14), Acrolein]
The level of expressed mRNA in the presence of chemical substance/The level of expressed mRNA in the absence of chemical substance (yeast gene YAL053W, cultured two hours with substance): 0.7
The level of expressed mRNA in the presence of chemical substance/The level of expressed mRNA in the absence of chemical substance (yeast gene YAR028W, cultured two hours with substance): 1.2
The level of expressed mRNA in the presence of chemical substance/The level of expressed mRNA in the absence of chemical substance (yeast gene YBL048W, cultured two hours with substance): 2.0
The level of expressed mRNA in the presence of chemical substance/The level of expressed mRNA in the absence of chemical substance (yeast gene YBL049W, cultured two hours with substance): 1.5
The level of expressed mRNA in the presence of chemical substance/The level of expressed mRNA in the absence of chemical substance (yeast gene YBL064C (detoxification protein gene)): 5.0
The level of expressed mRNA in the presence of chemical substance/The level of expressed mRNA in the absence of chemical substance (yeast gene YBL107C, cultured two hours with substance): 2.5
The level of expressed mRNA in the presence of chemical substance/The level of expressed mRNA in the absence of chemical substance (yeast gene YBR062C, cultured two hours with substance): 2.6
The level of expressed mRNA in the presence of chemical substance/The level of expressed mRNA in the absence of chemical substance (yeast gene YBR116C, cultured two hours with substance): 2.7
The level of expressed mRNA in the presence of chemical substance/The level of expressed mRNA in the absence of chemical substance (yeast gene YCR013C, cultured two hours with substance): 1.5
The level of expressed mRNA in the presence of chemical substance/The level of expressed mRNA in the absence of chemical substance (yeast gene YCR102C, cultured two hours with substance): 4.1
The level of expressed mRNA in the presence of chemical substance/The level of expressed mRNA in the absence of chemical substance (yeast gene YDL021W, cultured for two hours with substance): 3.7
The level of expressed mRNA in the presence of chemical substance/The level of expressed mRNA in the absence of chemical substance (yeast gene YDL059C, DNA repair protein genes, cultured two hours with substance): 4.7
The level of expressed mRNA in the presence of chemical substance/The level of expressed mRNA in the absence of chemical substance (yeast gene YDL072C, cultured two hours with substance): 1.8
The level of expressed mRNA in the presence of chemical substance/The level of expressed mRNA in the absence of chemical substance (yeast gene YDL204W, cultured two hours with substance): 2.4
The level of expressed mRNA in the presence of chemical substance/The level of expressed mRNA in the absence of chemical substance (yeast gene YDL218W, cultured two hours with substance): 4.8
The level of expressed mRNA in the presence of chemical substance/The level of expressed mRNA in the absence of chemical substance (yeast gene YDL222C, cultured two hours with substance): 1.3
The level of expressed mRNA in the presence of chemical substance/The level of expressed mRNA in the absence of chemical substance (yeast gene YDR031W, cultured two hours with substance): 2.5
The level of expressed mRNA in the presence of chemical substance/The level of expressed mRNA in the absence of chemical substance (yeast gene YDR330W, cultured two hours with substance): 1.1
The level of expressed mRNA in the presence of chemical substance/The level of expressed mRNA in the absence of chemical substance (yeast gene YDR391C, cultured two hours with substance): 2.3
The level of expressed mRNA in the presence of chemical substance/The level of expressed mRNA in the absence of chemical substance (yeast gene YDR411C, cultured two hours with substance): 0.8
The level of expressed mRNA in the presence of chemical substance/The level of expressed mRNA in the absence of chemical substance (yeast gene YDR486C, cultured two hours with substance): 2.4
The level of expressed mRNA in the presence of chemical substance/The level of expressed mRNA in the absence of chemical substance (yeast gene YDR511W, cultured two hours with substance): 2.2
The level of expressed mRNA in the presence of chemical substance/The level of expressed mRNA in the absence of chemical substance (yeast gene YDR545W, cultured two hours with substance): 0.7
The level of expressed mRNA in the presence of chemical substance/The level of expressed mRNA in the absence of chemical substance (yeast gene YEL001C, cultured two hours with substance): 1.3
The level of expressed mRNA in the presence of chemical substance/The level of expressed mRNA in the absence of chemical substance (yeast gene YEL057C, cultured two hours with the chemical substance): 1.5
The level of expressed mRNA in the presence of chemical substance/The level of expressed mRNA in the absence of chemical substance (yeast gene YER004W, cultured two hours with substance): 1.8
The level of expressed mRNA in the presence of chemical substance/The level of expressed mRNA in the absence of chemical substance (yeast gene YER012W): 4.6
The level of expressed mRNA in the presence of chemical substance/The level of expressed mRNA in the absence of chemical substance (yeast gene YER035W, cultured two hours with substance): 1.0
The level of expressed mRNA in the presence of chemical substance/The level of expressed mRNA in the absence of chemical substance (yeast gene YER038C, cultured two hours with substance): 1.3
The level of expressed mRNA in the presence of chemical substance/The level of expressed mRNA in the absence of chemical substance (yeast gene YER079W, cultured two hours with substance): 1.6
The level of expressed mRNA in the presence of chemical substance/The level of expressed mRNA in the absence of chemical substance (yeast gene YER106W, cultured two hours with substance): 1.5
The level of expressed mRNA in the presence of chemical substance/The level of expressed mRNA in the absence of chemical substance (yeast gene YER158C, cultured two hours with substance): 0.9
The level of expressed mRNA in the presence of chemical substance/The level of expressed mRNA in the absence of chemical substance (yeast gene YER163C, cultured two hours with substance): 1.9
The level of expressed mRNA in the presence of chemical substance/The level of expressed mRNA in the absence of chemical substance (yeast gene YER175C, cultured two hours with substance): 1.1
The level of expressed mRNA in the presence of chemical substance/The level of expressed mRNA in the absence of chemical substance (yeast gene YFL006W, cultured two hours with substance): 1.7
The level of expressed mRNA in the presence of chemical substance/The level of expressed mRNA in the absence of chemical substance (yeast gene YFL010C, cultured two hours with substance): 1.4
The level of expressed mRNA in the presence of chemical substance/The level of expressed mRNA in the absence of chemical substance (yeast gene YFL014W, DNA repair protein genes, cultured two hours with substance): 7.3
The level of expressed mRNA in the presence of chemical substance/The level of expressed mRNA in the absence of chemical substance (yeast gene YFL024C, cultured two hours with substance): 3.3
The level of expressed mRNA in the presence of chemical substance/The level of expressed mRNA in the absence of chemical substance (yeast gene YFL032W, cultured two hours with substance): 0.6
The level of expressed mRNA in the presence of chemical substance/The level of expressed mRNA in the absence of chemical substance (yeast gene YFR003C, cultured two hours with substance): 2.1
The level of expressed mRNA in the presence of chemical substance/The level of expressed mRNA in the absence of chemical substance (yeast gene YGL037C, cultured two hours with substance): 1.0
The level of expressed mRNA in the presence of chemical substance/The level of expressed mRNA in the absence of chemical substance (yeast gene YGL047W, cultured two hours with substance): 2.3
